Laboratory results: article PMC6102642, “Effect of Noncanonical Amino Acids on Protein–Carbohydrate Interactions: Structure, Dynamics, and Carbohydrate Affinity of a Lectin Engineered with Fluorinated Tryptophan Analogs” (ACS Chemical Biology, 2018)

Columns and labels:
Type in all cases: binding
Conditions in all cases: SD
RSL[4FW] = target: T1, RSL[4FW]
T1 construct: all seven Trp replaced by 4-fluorotryptophan (85% of protein 7/7 labeled); from pQE80L-RSL in E. coli BWEC47; homotrimer

RSL[7FW] = target: T2, RSL[7FW]
T2 construct: all seven Trp replaced by 7-fluorotryptophan (84% of protein 7/7 labeled); from pQE80L-RSL in E. coli BWEC47; homotrimer

RSL[5FW] = target: T3, RSL[5FW]
T3 construct: all seven Trp replaced by 5-fluorotryptophan (86% of protein 7/7 labeled); from pQE80L-RSL in E. coli BWEC47; homotrimer

RSL = target: T4, RSL (Ralstonia solanacearum, UniProt A0A0S4TLR1); assay: biochemical
T4 construct: gene E7Z57_08365

SMILES | Kd (RSL[4FW]) [µM] | Kd (RSL[7FW]) [µM] | Kd (RSL[5FW]) [µM] | Kd (RSL) [µM]
CC(=O)N[C@H]1[C@H](O[C@H]2[C@@H](O)[C@@H](CO)OC(O)[C@@H]2O)O[C@H](CO)[C@@H](O[C@@H]2O[C@H](CO)[C@H](O)[C@H](O)[C@H]2O[C@@H]2O[C@@H](C)[C@@H](O)[C@@H](O)[C@@H]2O)[C@@H]1O (stereo partly drawn) [HType2, blood group H type 2 antigen tetrasaccharide, Fucα1–2Galβ1–4GlcNAcβ1–3Gal] | 8.18 | 4.35 | 6.06 | 6.36
CC(=O)N[C@H]1[C@H](O[C@H]2[C@@H](O)[C@@H](CO)OC(O)[C@@H]2O)O[C@H](CO)[C@@H](O[C@@H]2O[C@H](CO)[C@H](O)[C@H](O)[C@H]2O)[C@@H]1O[C@@H]1O[C@@H](C)[C@@H](O)[C@@H](O)[C@@H]1O (stereo partly drawn) [LeX, lewis X tetrasaccharide, Galβ1–4[Fucα1–3]GlcNAcβ1–3Gal] | 67.8 | 52.1 | 52.4 | 32.5
CO[C@@H]1O[C@@H](C)[C@@H](O)[C@@H](O)[C@@H]1O [αMeFuc, methyl α-L-fucopyranoside] | 1.73 | 1.11 | 0.889 | 1.21
